In experiment [1] the target is T1, Inhibitor of nuclear factor kappa-B kinase subunit beta (Homo sapiens) (UniProt O14920).
T1 sequence (whole entry): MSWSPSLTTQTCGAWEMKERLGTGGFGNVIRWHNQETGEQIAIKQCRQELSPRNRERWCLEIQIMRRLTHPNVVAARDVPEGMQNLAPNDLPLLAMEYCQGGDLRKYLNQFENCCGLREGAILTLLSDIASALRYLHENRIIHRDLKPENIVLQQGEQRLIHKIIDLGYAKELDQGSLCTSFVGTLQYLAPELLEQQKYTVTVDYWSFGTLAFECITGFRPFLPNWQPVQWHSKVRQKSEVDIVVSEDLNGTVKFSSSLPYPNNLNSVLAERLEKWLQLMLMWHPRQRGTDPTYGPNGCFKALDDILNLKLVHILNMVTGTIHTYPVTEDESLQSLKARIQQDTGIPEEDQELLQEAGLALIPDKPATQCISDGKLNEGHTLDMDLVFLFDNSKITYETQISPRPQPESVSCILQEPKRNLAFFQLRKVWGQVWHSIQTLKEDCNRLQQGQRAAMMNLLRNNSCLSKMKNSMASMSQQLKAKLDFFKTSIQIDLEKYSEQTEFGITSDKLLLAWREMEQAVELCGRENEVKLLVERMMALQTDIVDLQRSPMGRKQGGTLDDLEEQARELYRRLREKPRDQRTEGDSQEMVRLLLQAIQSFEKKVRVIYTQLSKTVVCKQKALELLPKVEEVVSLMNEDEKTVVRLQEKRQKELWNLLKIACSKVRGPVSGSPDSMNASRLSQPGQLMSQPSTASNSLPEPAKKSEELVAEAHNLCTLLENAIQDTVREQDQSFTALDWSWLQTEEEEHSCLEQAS
Nature of the experiment: Selectivity interaction (KinomeScan (DiscoverX)) EUB0000595a IKBKB. The conditions noted are these: at 10 µM.

The target of experiment [2] is Dual specificity protein kinase CLK1 (Homo sapiens, UniProt P49759). Nature of the experiment: Selectivity interaction (KinomeScan (DiscoverX)) EUB0001619a CLK1. The conditions noted are these: at 1 µM.
The target in experiment [3] is Calcium/calmodulin-dependent protein kinase kinase 1 (Homo sapiens) (UniProt Q8N5S9). The conditions noted are these: at 10 µM.
Experiment [4] concerns the target MAP kinase-activated protein kinase 2 (Homo sapiens, UniProt P49137). Nature of the experiment: Selectivity interaction (KinomeScan (DiscoverX)) EUB0000695a MAPKAPK2. The conditions noted are these: at 100 nM.
Experiment [5] deals with STE20/SPS1-related proline-alanine-rich protein kinase (Homo sapiens) (UniProt Q9UEW8). Nature of the experiment: Selectivity interaction (KinomeScan (DiscoverX)) EUB0000607a STK39. The conditions noted are these: at 10 µM.
In experiment [6] the target is Cyclin-dependent kinase 8 (Homo sapiens, UniProt P49336). Nature of the experiment: Selectivity interaction (ActivX KiNativ screen (kinase selectivity in THP-1 cell lysates)) EUB0000639a CDK8. Type of experiment: subcellular. The conditions noted are these: lysate.
Chain of Cyclin-dependent kinase 8 (P49336 whole entry): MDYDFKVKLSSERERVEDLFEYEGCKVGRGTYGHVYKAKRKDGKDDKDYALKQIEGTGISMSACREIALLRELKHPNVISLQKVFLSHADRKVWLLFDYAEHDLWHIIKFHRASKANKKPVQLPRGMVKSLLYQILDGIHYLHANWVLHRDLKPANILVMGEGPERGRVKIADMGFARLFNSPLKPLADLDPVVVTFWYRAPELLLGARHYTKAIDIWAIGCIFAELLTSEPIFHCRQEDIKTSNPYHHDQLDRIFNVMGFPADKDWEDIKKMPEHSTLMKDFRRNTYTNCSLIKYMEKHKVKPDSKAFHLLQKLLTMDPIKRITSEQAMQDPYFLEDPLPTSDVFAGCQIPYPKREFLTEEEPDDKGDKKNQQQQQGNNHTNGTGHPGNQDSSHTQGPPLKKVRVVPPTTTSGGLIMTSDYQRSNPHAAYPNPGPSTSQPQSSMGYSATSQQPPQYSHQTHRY
The target of experiment [7] is Mitogen-activated protein kinase 10 (Homo sapiens, UniProt P53779). Nature of the experiment: Selectivity interaction (Kinase panel (Invitrogen)) EUB0000639a MAPK10. The conditions noted are these: at 200 nM.
Chain of Mitogen-activated protein kinase 10 (P53779 whole entry): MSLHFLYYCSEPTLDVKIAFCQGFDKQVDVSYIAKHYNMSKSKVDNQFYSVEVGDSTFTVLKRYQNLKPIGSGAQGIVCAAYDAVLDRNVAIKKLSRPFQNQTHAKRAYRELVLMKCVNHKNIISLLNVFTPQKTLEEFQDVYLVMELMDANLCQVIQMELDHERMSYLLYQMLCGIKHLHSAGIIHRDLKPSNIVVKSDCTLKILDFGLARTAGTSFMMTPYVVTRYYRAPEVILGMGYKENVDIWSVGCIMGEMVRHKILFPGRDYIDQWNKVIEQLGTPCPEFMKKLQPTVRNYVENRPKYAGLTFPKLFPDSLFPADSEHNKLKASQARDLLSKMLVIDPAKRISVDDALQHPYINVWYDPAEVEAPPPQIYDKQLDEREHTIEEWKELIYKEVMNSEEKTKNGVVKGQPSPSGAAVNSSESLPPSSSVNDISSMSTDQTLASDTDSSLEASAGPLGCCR
Experiment [8] addresses Ribosomal protein S6 kinase alpha-6 (Homo sapiens, UniProt Q9UK32). Nature of the experiment: Selectivity interaction (KinomeScan (DiscoverX)) EUB0001049a RPS6KA6. The conditions noted are these: at 1 µM.
Experiment [9] addresses Glycogen synthase kinase-3 beta (Homo sapiens, UniProt P49841). Nature of the experiment: Selectivity interaction (Upstate Kinase Profiler service (Millipore)) EUB0000056c GSK3B. The conditions noted are these: at 1 µM.
For experiment [10], the target named is T2, Serine/threonine-protein kinase Nek11 (Homo sapiens) (UniProt Q8NG66).
T2 sequence (whole entry): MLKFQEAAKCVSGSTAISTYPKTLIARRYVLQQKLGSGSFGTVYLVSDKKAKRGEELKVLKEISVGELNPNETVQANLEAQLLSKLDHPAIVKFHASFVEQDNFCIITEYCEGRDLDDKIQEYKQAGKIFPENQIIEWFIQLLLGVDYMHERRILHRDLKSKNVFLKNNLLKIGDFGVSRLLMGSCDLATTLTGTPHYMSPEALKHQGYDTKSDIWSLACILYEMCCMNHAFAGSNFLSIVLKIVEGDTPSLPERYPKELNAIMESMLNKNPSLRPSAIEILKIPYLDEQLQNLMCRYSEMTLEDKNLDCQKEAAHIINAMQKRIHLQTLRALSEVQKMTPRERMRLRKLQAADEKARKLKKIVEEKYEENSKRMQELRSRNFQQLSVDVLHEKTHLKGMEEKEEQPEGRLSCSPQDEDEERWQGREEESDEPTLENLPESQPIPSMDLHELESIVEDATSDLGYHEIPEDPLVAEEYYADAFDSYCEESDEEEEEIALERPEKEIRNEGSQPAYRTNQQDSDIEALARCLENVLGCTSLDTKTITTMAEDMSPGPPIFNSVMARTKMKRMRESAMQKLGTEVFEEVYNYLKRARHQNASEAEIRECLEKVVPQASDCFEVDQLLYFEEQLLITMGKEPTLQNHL
Nature of the experiment: Selectivity interaction (KinomeScan (DiscoverX)) EUB0000655a NEK11. The conditions noted are these: at 10 µM.

For experiment [11], the target named is Casein kinase I isoform gamma-1 (Homo sapiens) (UniProt Q9HCP0). Nature of the experiment: Selectivity interaction (KinomeScan (DiscoverX)) EUB0000092b CSNK1G1. The conditions noted are these: at 10 µM.
Chain of Casein kinase I isoform gamma-1 (Homo sapiens) (Q9HCP0 whole entry, looked up, canonical isoform): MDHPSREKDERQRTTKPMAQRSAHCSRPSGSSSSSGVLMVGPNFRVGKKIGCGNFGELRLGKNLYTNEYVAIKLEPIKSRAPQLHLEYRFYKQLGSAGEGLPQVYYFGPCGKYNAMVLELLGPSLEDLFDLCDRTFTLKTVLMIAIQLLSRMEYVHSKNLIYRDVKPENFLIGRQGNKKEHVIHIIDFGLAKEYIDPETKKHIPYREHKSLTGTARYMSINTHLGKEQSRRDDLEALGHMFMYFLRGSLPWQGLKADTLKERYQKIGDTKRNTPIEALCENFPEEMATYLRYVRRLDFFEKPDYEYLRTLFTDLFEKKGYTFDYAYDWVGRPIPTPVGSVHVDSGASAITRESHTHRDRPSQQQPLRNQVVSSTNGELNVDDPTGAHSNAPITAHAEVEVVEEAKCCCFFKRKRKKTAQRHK
In experiment [12] the target is Dual specificity tyrosine-phosphorylation-regulated kinase 1A (Homo sapiens, UniProt Q13627). Nature of the experiment: Selectivity interaction (Kinase panel (DSF assay)) EUB0001558a DYRK1A.
The target of experiment [13] is BMP-2-inducible protein kinase (Homo sapiens) (UniProt Q9NSY1). Nature of the experiment: Selectivity interaction (Kinase panel (DSF assay)) EUB0001558a BMP2K.
Chain of BMP-2-inducible protein kinase (Homo sapiens) (Q9NSY1 whole entry, looked up): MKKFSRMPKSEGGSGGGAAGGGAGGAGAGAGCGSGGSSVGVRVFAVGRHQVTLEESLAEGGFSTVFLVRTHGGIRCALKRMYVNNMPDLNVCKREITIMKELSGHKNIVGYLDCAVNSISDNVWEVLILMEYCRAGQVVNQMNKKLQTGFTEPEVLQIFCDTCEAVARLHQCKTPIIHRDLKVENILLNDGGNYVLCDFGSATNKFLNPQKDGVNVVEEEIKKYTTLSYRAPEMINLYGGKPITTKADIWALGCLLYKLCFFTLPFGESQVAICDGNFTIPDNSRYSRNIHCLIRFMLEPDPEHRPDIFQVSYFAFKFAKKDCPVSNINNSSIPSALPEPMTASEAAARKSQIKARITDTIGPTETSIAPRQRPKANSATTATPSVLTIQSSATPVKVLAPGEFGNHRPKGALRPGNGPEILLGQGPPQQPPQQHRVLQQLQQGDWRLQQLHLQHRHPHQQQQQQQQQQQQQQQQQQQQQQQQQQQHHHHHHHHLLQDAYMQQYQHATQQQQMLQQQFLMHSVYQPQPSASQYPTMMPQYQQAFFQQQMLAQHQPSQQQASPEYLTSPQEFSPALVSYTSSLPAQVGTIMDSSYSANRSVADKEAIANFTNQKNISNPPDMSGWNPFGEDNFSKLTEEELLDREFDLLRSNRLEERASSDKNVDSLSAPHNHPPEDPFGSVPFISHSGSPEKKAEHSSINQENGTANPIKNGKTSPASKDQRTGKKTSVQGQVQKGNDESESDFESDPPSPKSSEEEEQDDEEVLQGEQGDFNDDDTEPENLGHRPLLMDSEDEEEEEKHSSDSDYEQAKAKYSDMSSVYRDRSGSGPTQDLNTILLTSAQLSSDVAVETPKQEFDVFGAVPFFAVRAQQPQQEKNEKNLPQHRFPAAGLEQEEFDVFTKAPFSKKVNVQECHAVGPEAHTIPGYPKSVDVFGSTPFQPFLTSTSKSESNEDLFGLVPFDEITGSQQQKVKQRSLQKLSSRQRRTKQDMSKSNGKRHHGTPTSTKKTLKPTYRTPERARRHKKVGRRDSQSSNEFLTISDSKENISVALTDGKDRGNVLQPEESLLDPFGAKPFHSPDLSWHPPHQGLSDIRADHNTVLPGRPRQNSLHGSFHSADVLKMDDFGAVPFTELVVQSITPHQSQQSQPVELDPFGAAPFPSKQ
The target of experiment [14] is Cyclin-dependent kinase 14 (Homo sapiens) (UniProt O94921). Nature of the experiment: Selectivity interaction (KinomeScan (DiscoverX)) EUB0001079a CDK14. The conditions noted are these: at 1 µM.
Experiment [15] deals with Dual specificity mitogen-activated protein kinase kinase 1 (Homo sapiens, UniProt Q02750). The conditions noted are these: at 10 µM.
Chain of Dual specificity mitogen-activated protein kinase kinase 1 (Q02750 whole entry): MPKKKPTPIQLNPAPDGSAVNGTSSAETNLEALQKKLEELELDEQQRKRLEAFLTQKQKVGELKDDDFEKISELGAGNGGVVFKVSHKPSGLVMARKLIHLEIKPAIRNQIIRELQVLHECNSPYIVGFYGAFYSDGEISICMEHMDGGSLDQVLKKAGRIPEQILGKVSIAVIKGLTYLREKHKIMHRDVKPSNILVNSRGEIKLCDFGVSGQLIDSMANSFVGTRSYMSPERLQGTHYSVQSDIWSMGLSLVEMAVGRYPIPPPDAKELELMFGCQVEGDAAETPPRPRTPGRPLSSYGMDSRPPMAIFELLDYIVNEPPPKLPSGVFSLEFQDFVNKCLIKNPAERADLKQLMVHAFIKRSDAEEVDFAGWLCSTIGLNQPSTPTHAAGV
Experiment [16] has as its target Serine/threonine-protein kinase MARK2 (Homo sapiens) (UniProt Q7KZI7). Nature of the experiment: Selectivity interaction (Kinase panel (KiNativ target engagement assay in Jurkat cells)) EUB0001635a MARK2. Type of experiment: cell-based. The conditions noted are these: Selectivity number of off-targets 0.0, Selectivity number of targets 233.0, Source Knowledge https://www.sciencedirect.com/science/article/pii/S2451945619300674?via%3Dihub, at 1 µM.

Chain of Ribosomal protein S6 kinase alpha-6 (Q9UK32 whole entry): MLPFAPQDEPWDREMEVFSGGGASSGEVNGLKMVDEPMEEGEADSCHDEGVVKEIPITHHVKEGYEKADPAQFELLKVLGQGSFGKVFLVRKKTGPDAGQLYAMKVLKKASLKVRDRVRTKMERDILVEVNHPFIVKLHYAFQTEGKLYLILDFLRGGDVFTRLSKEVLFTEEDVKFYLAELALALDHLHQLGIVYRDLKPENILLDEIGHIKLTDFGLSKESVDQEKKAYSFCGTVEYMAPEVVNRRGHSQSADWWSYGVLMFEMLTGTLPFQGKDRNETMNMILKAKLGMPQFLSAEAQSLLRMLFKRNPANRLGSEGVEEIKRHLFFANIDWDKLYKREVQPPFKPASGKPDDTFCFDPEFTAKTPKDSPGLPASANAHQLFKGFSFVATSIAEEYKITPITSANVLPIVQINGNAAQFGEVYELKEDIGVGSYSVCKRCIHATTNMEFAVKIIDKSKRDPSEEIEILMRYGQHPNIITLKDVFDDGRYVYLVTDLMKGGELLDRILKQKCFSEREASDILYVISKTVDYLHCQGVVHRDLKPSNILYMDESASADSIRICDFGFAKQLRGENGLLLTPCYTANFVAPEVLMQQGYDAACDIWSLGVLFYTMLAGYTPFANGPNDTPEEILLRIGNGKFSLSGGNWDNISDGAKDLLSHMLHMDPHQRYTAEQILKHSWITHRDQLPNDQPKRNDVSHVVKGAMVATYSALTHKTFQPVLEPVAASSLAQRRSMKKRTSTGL
Chain of MAP kinase-activated protein kinase 2 (P49137 whole entry, looked up): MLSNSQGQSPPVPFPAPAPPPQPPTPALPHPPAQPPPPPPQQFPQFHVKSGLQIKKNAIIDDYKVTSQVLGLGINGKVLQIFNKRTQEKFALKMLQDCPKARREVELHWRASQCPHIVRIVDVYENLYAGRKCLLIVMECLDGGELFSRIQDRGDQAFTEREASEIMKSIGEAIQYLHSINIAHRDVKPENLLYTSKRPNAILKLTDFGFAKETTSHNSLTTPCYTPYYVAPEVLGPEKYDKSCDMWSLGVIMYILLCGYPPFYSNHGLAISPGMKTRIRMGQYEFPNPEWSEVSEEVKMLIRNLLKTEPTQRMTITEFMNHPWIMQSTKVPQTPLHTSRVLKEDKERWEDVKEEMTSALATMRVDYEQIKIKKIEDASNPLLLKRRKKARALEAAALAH
Chain of Serine/threonine-protein kinase MARK2 (Homo sapiens) (Q7KZI7 whole entry): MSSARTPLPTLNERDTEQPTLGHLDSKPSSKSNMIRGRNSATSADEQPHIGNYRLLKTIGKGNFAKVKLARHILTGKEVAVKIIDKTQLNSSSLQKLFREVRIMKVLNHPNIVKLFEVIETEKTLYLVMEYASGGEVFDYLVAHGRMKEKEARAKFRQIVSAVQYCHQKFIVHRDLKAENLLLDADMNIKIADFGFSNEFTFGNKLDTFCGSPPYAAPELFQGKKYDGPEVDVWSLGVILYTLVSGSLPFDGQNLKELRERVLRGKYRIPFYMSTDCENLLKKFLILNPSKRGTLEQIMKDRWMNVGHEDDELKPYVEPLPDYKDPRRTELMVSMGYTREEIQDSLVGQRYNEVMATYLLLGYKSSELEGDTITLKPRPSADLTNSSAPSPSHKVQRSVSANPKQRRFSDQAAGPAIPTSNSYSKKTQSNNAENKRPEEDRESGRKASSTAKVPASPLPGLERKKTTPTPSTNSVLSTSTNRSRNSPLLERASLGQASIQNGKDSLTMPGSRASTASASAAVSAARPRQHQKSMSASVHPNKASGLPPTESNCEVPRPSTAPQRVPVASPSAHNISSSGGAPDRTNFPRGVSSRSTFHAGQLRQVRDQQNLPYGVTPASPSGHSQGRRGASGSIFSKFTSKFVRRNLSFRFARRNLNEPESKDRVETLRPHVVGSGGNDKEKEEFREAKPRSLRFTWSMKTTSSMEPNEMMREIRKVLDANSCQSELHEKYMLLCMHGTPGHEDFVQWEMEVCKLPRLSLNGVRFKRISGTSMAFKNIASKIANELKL

With `COCC(=O)NC/C=C/c1ccc2ncnc(Nc3ccc(Oc4ccc(C)nc4)c(C)c3)c2c1` [CP-724714], in [1], the % of control is 100%.

`N#Cc1cccc(-c2c[nH]c3ncnc(N4CCOCC4)c23)c1` registered a % of control in experiment [2] of 63%. Take `CCN(CC)CCCCNc1ncc2cc(-c3cc(OC)cc(OC)c3)c(NC(=O)NC(C)(C)C)nc2n1`: the % of control in [3] stood at 100%.

Take `Cc1cc(F)c(C(=O)Nc2cccc(-c3nncn3C(C)C)n2)cc1-n1cnc(C2CC2)c1`: the % of control in experiment [4] was 57%. Regarding `CNC(=O)Nc1ccc(-c2nc(N3CC4CCC(C3)O4)c3cnn(C4CCC5(CC4)OCCO5)c3n2)cc1`, in [5], the % of control turned out to be 100%. Regarding `CC[C@@H]1[C@H](F)C(=O)N[C@@H]1COc1nccc2cc(C(N)=O)c(OC)cc12` [ZIMLOVISERTIB], the % of inhibition in experiment [6] (at 0.01 µM) was 10.4%; in experiment [6] (at 0.04 µM) it was -11.1%; in experiment [6] (at 0.2 µM), 2.6%; in experiment [6] (at 1 µM) it was 7.8%; in [6] (at 5 µM), 18.7%; in experiment [7], 4.92%. Molecule `COc1cc(Nc2nc(C)cc(-c3cnn4nc(OC)ccc34)n2)cc(C(F)(F)F)c1` gave a % of control in experiment [8] of 70%. Consider `Cc1ccc(-c2ccc3c(ccc4sc5c(c43)NC[C@@H](C)NC5=O)n2)cn1`, for which, in experiment [9], the % of inhibition is 11%.

In experiment [10], `CN(C)CCOc1ccc(-c2nc(-c3ccncc3)c(-c3ccc4c(c3)CC/C4=N\O)[nH]2)cc1` yielded a % of control of 81%. The molecule `CCC(=O)N1CCN(c2ccc(-n3c(=O)ccc4cnc5ccc(-c6cnc7ccccc7c6)cc5c43)cc2C(F)(F)F)CC1` showed a % of control in experiment [11] of 100%.

In the case of `CC(C)(O)[C@H](F)CN1Cc2cc(NC(=O)c3cnn4cccnc34)c(N3CCOCC3)cc2C1=O`, the dTM in experiment [12] turned out to be 0.2 K; in experiment [13], 8.7 K. `Nc1cnc(N2CCc3cc(S(=O)(=O)Nc4c(F)cc(Cl)cc4F)cc(N4CCCC4=O)c32)nc1` [TP-020n] returned a % of control in experiment [14] of 100%. With `CC(=O)Nc1cccc(-n2c(=O)n(C3CC3)c(=O)c3c(Nc4ccc(I)cc4F)n(C)c(=O)c(C)c32)c1`, the % of control in experiment [15] is 28%. For the molecule `C=CC(=O)Nc1ccc(C(=O)Nc2[nH]nc3c2CN(C(=O)N[C@H](CN(C)C)c2ccccc2)C3(C)C)cc1`, in [16], the % of engagement was 6.7%.

Values taken from ChEMBL document CHEMBL5465560, “Selectivity Literature for EUbOPEN Chemogenomic Library” (2024).
